Read-outs that look alike come from different tables or passages of the source.
Columns and labels:
[1] = for 1/τ (inverse time constant of drug distribution and equilibration) / tD (delay): mean ± SD, five piglets
Experimental: Five neonatal Yorkshire Duroc piglets of 10+/−3 d of age weighting 2.4+/−0.6 kg were pre-anesthetized with ketamine (33 mg/kg) and atropine (0.05 mg/kg), intubated, and anesthetized using 1.5-3.0% isoflurane while mechanically ventilated. Core body temperature was kept at 38+/−0.5° C. BP, HR, arterial O2 saturation, end-tidal CO2, fraction of inspired O2, and pulmonary compliance were continuously monitored. HR beyond 250 bpm was captured using the PC-Vet wireless ECG system or direct counting. The animals received intravenous heparin (200 units/kg/h), physiologic saline (10 mL/kg/h), and 10 g/dL of dextrose-water to adjust serum glucose levels using Genie Plus syringe pumps validated for stability of infusion rate. Serum electrolytes, base excess (−6 to +6), pH (7.20-7.45), partial arterial O2 pressure (80-120 mmHg) and partial arterial CO2 pressure (35-45 mmHg), and arterial O2 saturation (90-100%) were maintained in the target ranges using sodium bicarbonate, potassium chloride, lactated Ringer's solution, and ventilatory changes, respectively. Both femoral veins and left femoral artery were cannulated for fluid and drug administration, and arterial BP measurements and blood sampling, respectively. […] The baseline measurements were recorded after a 15-min postsurgical stabilization period, followed by the escalation of dose, and a 15-min washout period after the discontinuation of the medication. […] To deduce the rate of change of the hemodynamic parameters, the data obtained were subdivided into baseline, low dose (0.25 mcg/kg/min), medium dose (0.5 and 0.75 mcg/kg/min) and high dose (1, 1.5 and 2 mcg/kg/min). BP and HR were collected in real time at a sampling rate of 0.2 Hz.

[2] = range across four pooled subject groups, cited from earlier work

In the case of `CNC[C@H](O)c1ccc(O)c(O)c1` [epinephrine], the “1/τ (inverse time constant of drug distribution and equilibration)” value ([1]; X = H (HR)) is reported as 4.1e−3 ± 4.5e−3, the “tD (delay)” value ([1]; X = R (TPR)) is reported as 48.6 ± 17.6 s and the “1/τ (inverse time constant of drug distribution and equilibration)” value ([1]; X = δV (SV)) is reported as 0.01 ± 0.02. The “tD (delay)” value ([1]; X = δV (SV)) was 29.1 ± 26.1 s, the “HR increase as share of its maximum response” value ([1]; after the first dose escalation (0.25 mcg/kg/min), averaged over five piglets) was 55% and the “HR at which the response starts to saturate” value ([1]; doses of 1-2 mcg/kg/min, one particular piglet) was “around 400 bpm”. The MAP response ([1]; from the low-dose range, averaged over five piglets (FIG. 10)) was “persistently increases”, the DBP ([2]; epinephrine 020 ng/kg/min) was 69-88 mmHg and the HR ([2]; epinephrine 020 ng/kg/min) was 64-69 bpm. The MAP ([2]; epinephrine 020 ng/kg/min) was 83-110 mmHg, the SBP ([2]; epinephrine 020 ng/kg/min) was 112-153 mmHg and the SVI ([2]; epinephrine 020 ng/kg/min) was 54-65 ml/m^2. For the same molecule, the DBP ([2]; epinephrine 040 ng/kg/min) was 66-83 mmHg, the HR ([2]; epinephrine 040 ng/kg/min) was 68-73 bpm and the MAP ([2]; epinephrine 040 ng/kg/min) was 82-106 mmHg. The SBP ([2]; epinephrine 040 ng/kg/min) was 114-153 mmHg, the SVI ([2]; epinephrine 040 ng/kg/min) was 55-68 ml/m^2 and the DBP ([2]; epinephrine 080 ng/kg/min) was 62-79 mmHg. The HR ([2]; epinephrine 080 ng/kg/min) was 71-76 bpm, the MAP ([2]; epinephrine 080 ng/kg/min) was 83-105 mmHg and the SBP ([2]; epinephrine 080 ng/kg/min) was 124-158 mmHg. The SVI ([2]; epinephrine 080 ng/kg/min) was 58-71 ml/m^2, the DBP ([2]; epinephrine 120 ng/kg/min) was 61-79 mmHg and the HR ([2]; epinephrine 120 ng/kg/min) was 72-81 bpm. The MAP ([2]; epinephrine 120 ng/kg/min) was 84-109 mmHg, the SBP ([2]; epinephrine 120 ng/kg/min) was 132-168 mmHg and the SVI ([2]; epinephrine 120 ng/kg/min) was 59-74 ml/m^2. For the same molecule, the DBP ([2]; epinephrine 160 ng/kg/min) was 61-80 mmHg, the HR ([2]; epinephrine 160 ng/kg/min) was 75-79 bpm and the MAP ([2]; epinephrine 160 ng/kg/min) was 86-109 mmHg. The SBP ([2]; epinephrine 160 ng/kg/min) was 136-170 mmHg and the SVI ([2]; epinephrine 160 ng/kg/min) was 59-77 ml/m^2.

From patent publication US20170235917A1, “SYSTEMS AND METHODS FOR MONITORING AND CONTROLLING A CARD[…] OF A SUBJECT” (THE GENERAL HOSPITAL CORPORATION, priority 2014, published 2017)
